US20100311714A1, “1H-IMIDAZO[4,5-c]QUINOLINONE COMPOUNDS” (priority 2009, published 2010)

Tests used:
[1] = test system: S6 Ribosomal Protein phosphorylation Ser235/236 in TSC1 null mouse embryo fibroblast (MEF) cells; assay: Reverse protein array, S6 Ribosomal Protein phosphorylation in TSC1 null MEF cells; assay type: cell-based; conditions: 1 h, TSC1-/- MEFs, 60 minutes, read-out: p-S6 IC50
How it was run: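 Phospho-S6 (Ser235/236) was quantified by reverse protein array of cell lysates with a phospho-specific primary antibody. […]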

[2] = test system: PKB Ser473 phosphorylation in Rat1-myr-HA-p110 delta cells; assay: Reverse protein array, PKB Ser473 phosphorylation in Rat1-myr-HA-p110 delta cells; assay type: cell-based; conditions: Rattus norvegicus, 0.5 h, 30 minutes compound incubation, read-out: p-PKB/IC50_delta

SMILES	IC50 [1] [µM]	IC50 [2] [µM]
CCOc1ccc(-c2ccc3ncc4c(c3c2)n(-c2ccc(N(C)C)nc2C)c(=O)n4C)cn1 [Example 19.3, 1-(6-Dimethylamino-2-methyl-pyridin-3-yl)-8-(6-ethoxy-pyridin-3-yl)-3-methyl-1,3-dihydro-imidazo[4,5-c]quinolin-2-one]	0.002	0.0747
CCNc1cc(-c2ccc3ncc4c(c3c2)n(-c2ccc(OCCOC)nc2C)c(=O)n4C)cnc1C [Example 13.4, 8-(5-Ethylamino-6-methyl-pyridin-3-yl)-1-[6-(2-methoxy-ethoxy)-2-methyl-pyridin-3-yl]-3-methyl-1,3-dihydro-imidazo[4,5-c]quinolin-2-one]	0.001	< 0.00457
CCOc1ccc(-c2ccc3ncc4c(c3c2)n(-c2ccc(N(C)CCOC)nc2C)c(=O)n4C)cn1 [Example 15.3, 8-(6-Ethoxy-pyridin-3-yl)-1-{6-[(2-methoxy-ethyl)-methyl-amino]-2-methyl-pyridin-3-yl}-3-methyl-1,3-dihydro-imidazo[4,5-c]quinolin-2-one]	0.13	0.212
Cc1nc(N2CC(F)(F)C2)ccc1-n1c(=O)n(C)c2cnc3ccc(-c4cncc(C(C)(C)O)c4)cc3c21 [Example 24.2, 1-[6-(3,3-Difluoro-azetidin-1-yl)-2-methyl-pyridin-3-yl]-8-[5-(1-hydroxy-1-methyl-ethyl)-pyridin-3-yl]-3-methyl-1,3-dihydro-imidazo[4,5-c]quinolin-2-one]	0.001	0.03
COCc1ncc(-c2ccc3ncc4c(c3c2)n(-c2ccc(OC)nc2OC)c(=O)n4C)cc1OC [Example 8.12, 1-(2,6-Dimethoxy-pyridin-3-yl)-8-(5-methoxy-6-methoxymethyl-pyridin-3-yl)-3-methyl-1,3-dihydro-imidazo[4,5-c]quinolin-2-one]	0.004	0.135
COCCN(C)c1ccc(-n2c(=O)n(C)c3cnc4ccc(-c5cnc6c(ccn6C)c5)cc4c32)c(C)n1 [Example 15.7, 1-{6-[(2-Methoxy-ethyl)-methyl-amino]-2-methyl-pyridin-3-yl}-3-methyl-8-(1-methyl-1H-pyrrolo[2,3-b]pyridin-5-yl)-1,3-dihydro-imidazo[4,5-c]quinolin-2-one]	0.002	0.0443
